In patent US20260250318A1, “COMPOSITIONS AND METHODS FOR CROSSING THE BLOOD BRAIN BARRIER” (VOYAGER THERAPEUTICS, INC., priority 2022, published 2026):

Tested on: brains, heart, liver, muscle, and DRG of the NHPs
Experiment: Maturation of TTM-001 and TTM-002 capsids, NGS enrichment in NHP tissues
Type: in vivo
Text: This Example describes maturation of the AAV9 capsid variants, TTM-001 (SEQ ID NO: 981 (amino acid) and 983 (DNA), comprising SEQ ID NO: 941 (encoded by SEQ ID NO: 942)) and TTM-002 (SEQ ID NO: 982 (amino acid) and 984 (DNA), comprising SEQ ID NO: […] (encoded by SEQ ID NO: 944)) in NHPs to further enhance their transduction and biodistribution in the central nervous system as well as other tissues, and evolve the AAV capsid variants to provide further cross-species compatibility. Two approaches were used to mature the TTM-001 and TTM-002 capsid sequences in order to randomize and mutate within and around the peptide insert comprised within loop IV of the capsid variant. […] In the first maturation approach, sets of three contiguous amino acids were randomized across the mutagenesis region in the TTM-001 and TTM-002 sequences, which spanned from position 450 to position 466, numbered according to SEQ ID NO: 981 and 982. In the second maturation approach, mutagenic primers were used to introduce point mutations at a low frequency, scattered across the mutagenesis region in the TTM-001 and TTM-002 sequences ranging from position 449 to position 466, numbered according to SEQ ID NO: 981 and 982. AAV capsid variants arising from each maturation approach for TTM-001 and TTM-002 were pooled together, for subsequent testing and characterization in NHPs.
The library of pooled matured AAV capsid variants generated using the first maturation approach and the second maturation approach for the TTM-001 and TTM-002 AAV capsid variants were injected into two NHPs. […] Following RNA recovery and RT-PCR amplification, a systematic NGS enrichment analysis was performed to calculate the fold enrichment ratio relative to an AAV9 control, and the peptides comprised within the variants were identified.
Following the RNA recovery and NGS analysis from the second maturation approach, approximately 680,000 capsid variants were identified. The 680,000 matured capsid variants were then filtered based on samples with a raw virus count greater than 10 and a coefficient of variance (CV) of less than 1, which was calculated for each peptide across the brain samples taken from the two NHPs. […] Using this filtering criteria, this led to approximately 64,000 matured capsid variants.

[1] = NHP DRG, NGS, relative to AAV9 control
[2] = NHP brain, NGS, relative to AAV9 control
[3] = NHP heart, NGS, relative to AAV9 control
[4] = NHP liver DNA, NGS, relative to AAV9 control
[5] = NHP liver RNA, NGS, TTM-001 and TTM-002 matured AAV capsid variants, relative to AAV9 control
[6] = NHP muscle, NGS, relative to AAV9 control

| Sequence | Fold Enrichment relative to AAV9, DRG (NHP) [1] [fold] | Fold Enrichment relative to AAV9, Brain (NHP) [2] [fold] | Fold Enrichment relative to AAV9, Heart (NHP) [3] [fold] | Fold Enrichment relative to AAV9, Liver DNA (NHP) [4] [fold] | Fold Enrichment relative to AAV9, Liver RNA (NHP) [5] [fold] | Fold Enrichment relative to AAV9, Muscle (NHP) [6] [fold] | Fold Enrichment relative to AAV9, DRG (NHP) (NGS fold-enrichment, DRG, NHP, relative to AAV9) [fold] | Fold Enrichment relative to AAV9, Brain (NHP) (NGS fold-enrichment, brain, NHP, relative to AAV9) [fold] | Fold Enrichment relative to AAV9, Heart (NHP) (NGS fold-enrichment, heart, NHP, relative to AAV9) [fold] | Fold Enrichment relative to AAV9, Liver DNA (NHP) (NGS fold-enrichment, liver DNA, NHP, relative to AAV9) [fold] | Fold Enrichment relative to AAV9, Liver RNA (NHP) (NGS fold-enrichment, liver RNA, NHP, relative to AAV9) [fold] | Fold Enrichment relative to AAV9, Muscle (NHP) (NGS fold-enrichment, muscle, NHP, relative to AAV9) [fold] |
| --- | --- | --- | --- | --- | --- | --- | --- | --- | --- | --- | --- | --- |
| KTINGSGSPHSKTRKQQT | 0.000 | 0.000 | 0.000 | 2.858 | 36.010 | 0.000 |  |  |  |  |  |  |
| KTINGSGSPHSKVRMQQT | 0.000 | 0.000 | 0.000 | 1.835 | 11.572 | 0.000 |  |  |  |  |  |  |
| KTINGSGSPHSKWGLQQT | 0.000 | 0.000 | 0.000 | 2.639 | 17.543 | 0.000 |  |  |  |  |  |  |
| KTINGSGSPHSKWKSQQT | 0.000 | 0.000 | 4.904 | 1.239 | 20.390 | 0.163 |  |  |  |  |  |  |
| KTINGSGSPHSKWRLQQT | 0.000 | 0.000 | 0.000 | 2.037 | 68.083 | 0.000 |  |  |  |  |  |  |
| KTINGSGSPHSKYFMQQT | 0.000 | 0.000 | 0.000 | 2.993 | 57.350 | 0.000 |  |  |  |  |  |  |
| KTINGSGSPHSLAWNQQT | 0.000 | 0.000 | 0.000 | 4.746 | 29.015 | 0.000 |  |  |  |  |  |  |
| KTINGSGSPHSLCLNQQT | 0.000 | 0.000 | 0.000 | 1.790 | 17.028 | 0.000 |  |  |  |  |  |  |
| KTINGSGSPHSLPYNQQT | 0.000 | 0.000 | 0.000 | 2.048 | 14.792 | 0.000 |  |  |  |  |  |  |
| KTINGSGSPHSLWKNQQT | 0.000 | 0.000 | 0.000 | 4.010 | 45.796 | 0.000 |  |  |  |  |  |  |
| KTINGSGSPHSLYQNQQT | 0.000 | 0.000 | 0.000 | 1.503 | 11.590 | 0.000 |  |  |  |  |  |  |
| KTINGSGSPHSLYWNQQT | 0.000 | 0.000 | 0.000 | 0.000 | 53.262 | 0.000 |  |  |  |  |  |  |
| KTINGSGSPHSMCQNQQT | 0.000 | 0.000 | 0.000 | 1.348 | 37.209 | 0.000 |  |  |  |  |  |  |
| KTINGSGSPHSMCTNQQT | 0.000 | 0.000 | 0.000 | 0.392 | 13.114 | 0.000 |  |  |  |  |  |  |
| KTINGSGSPHSMYMNQQT | 0.000 | 0.000 | 0.000 | 5.840 | 81.106 | 0.000 |  |  |  |  |  |  |
| KTINGSGSPHSPPDNQQT | 0.000 | 0.000 | 0.000 | 0.033 | 12.973 | 0.000 |  |  |  |  |  |  |
| KTINGSGSPHSRCPNQQT | 0.000 | 0.000 | 0.000 | 4.890 | 39.529 | 0.000 |  |  |  |  |  |  |
| KTINGSGSPHSRCRNQQT | 0.000 | 0.000 | 0.000 | 5.150 | 64.416 | 0.000 |  |  |  |  |  |  |
| KTINGSGSPHSRFWNQQT | 0.000 | 0.000 | 0.000 | 6.955 | 51.225 | 0.000 |  |  |  |  |  |  |
| KTINGSGSPHSRMRNQQT | 0.000 | 0.000 | 0.000 | 2.816 | 48.902 | 0.000 |  |  |  |  |  |  |
| KTINGSGSPHSSCTNQQT | 0.000 | 0.000 | 0.000 | 3.363 | 11.382 | 0.000 |  |  |  |  |  |  |
| KTINGSGSPHSTCLNQQT | 0.000 | 0.000 | 0.000 | 4.762 | 11.132 | 0.000 |  |  |  |  |  |  |
| KTINGSGSPHSTTCNQQT | 0.000 | 0.000 | 0.000 | 3.315 | 23.771 | 0.000 |  |  |  |  |  |  |
| KTINGSGSPHSVFENQQT |  |  |  |  |  |  | 0.000 | 0.000 | 0.000 | 0.224 | 10.218 | 0.000 |
| KTINGSGSPHSVKKNQQT | 0.000 | 0.000 | 0.000 | 3.908 | 48.475 | 0.000 |  |  |  |  |  |  |
